According to PubChem BioAssay AID248 (DTP/NCI, 2004):
“And” between values parts separate entries of the source, which are not always exact repeats. Equal entries are not always repeated. Toxic doses and inconclusive results are not listed. Cut-off read from the data, not from the text of the source: active = T/C of 150% or more; inactive = T/C below 125%.

System: L1210 leukemia ip in BDF1 mice, survival T/C
Test: NCI In Vivo Anticancer Drug Screen. Data for tumor model L1210 Leukemia (intraperitoneal) in B6D2F1 (BDF1) mice
Settings: endpoint: mean survival time, higher = longer survival
Method in brief: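 Tumor was transplanted into mice, which were then dosed with test compound or vehicle alone. Survival was recorded for each group, and the treated figure was expressed relative to the control figure.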

[1] = dose: 100.0 mg/kg/injection, schedule: Q01DX009 (ip), vehicle: Klucel (hydroxypropylcellulose) (HPC)
[2] = dose: 200.0 mg/kg/injection, schedule: Q01DX009 (ip), vehicle: Klucel (hydroxypropylcellulose) (HPC)
[3] = dose: 100.0 mg/kg/injection, schedule: Q04DX003 (ip), vehicle: Klucel (hydroxypropylcellulose) (HPC)
[4] = dose: 50.0 mg/kg/injection, schedule: Q01DX009 (ip), vehicle: saline with Tween-80
[5] = dose: 100.0 mg/kg/injection, schedule: Q01DX009 (ip), vehicle: saline with Tween-80
[6] = dose: 200.0 mg/kg/injection, schedule: Q01DX009 (ip), vehicle: saline with Tween-80
[7] = dose: 100.0 mg/kg/injection, schedule: Q04DX003 (ip), vehicle: saline with Tween-80
[8] = dose: 100.0 mg/kg/injection, schedule: Q01DX001 (ip), vehicle: saline
[9] = dose: 200.0 mg/kg/injection, schedule: Q01DX001 (ip), vehicle: saline

Measured: T/C

OCC1OC(n2cnc3c(Cl)ncnc32)C(O)C1O (centres undefined)
inactive: dose: 62.5 mg/kg/injection, schedule: Q01DX009 (ip), vehicle: saline 96 % of control | dose: 62.5 mg/kg/injection, schedule: Q01DX010 (ip), vehicle: saline 102 % of control | dose: 62.5 mg/kg/injection, schedule: Q01DX Z (ip), vehicle: carboxymethylcellulose (CMC) 102 % of control | [1] 102 % of control | dose: 125.0 mg/kg/injection, schedule: Q01DX009 (ip), vehicle: saline 93 % of control and 89 % of control | dose: 125.0 mg/kg/injection, schedule: Q01DX010 (ip), vehicle: saline 89 % of control and 92 % of control | dose: 125.0 mg/kg/injection, schedule: Q01DX Z (ip), vehicle: carboxymethylcellulose (CMC) 96 % of control | dose: 250.0 mg/kg/injection, schedule: Q01DX009 (ip), vehicle: saline 96 % of control and 91 % of control | dose: 250.0 mg/kg/injection, schedule: Q01DX010 (ip), vehicle: saline 100 % of control and 92 % of control | dose: 250.0 mg/kg/injection, schedule: Q01DX Z (ip), vehicle: carboxymethylcellulose (CMC) 110 % of control | dose: 300.0 mg/kg/injection, schedule: Q01DX009 (ip), vehicle: Klucel (hydroxypropylcellulose) (HPC) 101 % of control | dose: 440.0 mg/kg/injection, schedule: Q01DX001 (ip), vehicle: carboxymethylcellulose (CMC) 96 % of control | dose: 500.0 mg/kg/injection, schedule: Q01DX009 (ip), vehicle: Klucel (hydroxypropylcellulose) (HPC) 100 % of control | dose: 500.0 mg/kg/injection, schedule: Q01DX009 (ip), vehicle: saline 96 % of control and 98 % of control | dose: 500.0 mg/kg/injection, schedule: Q01DX010 (ip), vehicle: saline 97 % of control and 88 % of control | dose: 500.0 mg/kg/injection, schedule: Q01DX Z (ip), vehicle: carboxymethylcellulose (CMC) 94 % of control | dose: 670.0 mg/kg/injection, schedule: Q01DX001 (ip), vehicle: carboxymethylcellulose (CMC) 95 % of control | dose: 1000.0 mg/kg/injection, schedule: Q01DX001 (ip), vehicle: carboxymethylcellulose (CMC) 95 % of control | dose: 1000.0 mg/kg/injection, schedule: Q01DX009 (ip), vehicle: Klucel (hydroxypropylcellulose) (HPC) 106 % of control | dose: 1500.0 mg/kg/injection, schedule: Q01DX001 (ip), vehicle: carboxymethylcellulose (CMC) 90 % of control | dose: 2250.0 mg/kg/injection, schedule: Q01DX001 (ip), vehicle: carboxymethylcellulose (CMC) 97 % of control

CCN(CC)CCOc1ccc(Br)cc1
inactive: dose: 25.0 mg/kg/injection, schedule: Q04DX003 (ip), vehicle: saline 105 % of control | dose: 50.0 mg/kg/injection, schedule: Q01DX009 (ip), vehicle: saline 102 % of control | dose: 50.0 mg/kg/injection, schedule: Q04DX003 (ip), vehicle: saline 100 % of control | dose: 100.0 mg/kg/injection, schedule: Q01DX009 (ip), vehicle: saline 102 % of control | dose: 100.0 mg/kg/injection, schedule: Q04DX003 (ip), vehicle: saline 103 % of control and 111 % of control

O=C(O)c1c(Br)c(Br)c(Br)c(Br)c1C(=O)Nc1ccccc1F
inactive: [1] 93 % of control | [2] 96 % of control

O=c1[nH][nH]c(=O)c2[nH]cnc12
inactive: [1] 107 % of control | [3] 104 % of control | [2] 103 % of control | dose: 200.0 mg/kg/injection, schedule: Q04DX003 (ip), vehicle: Klucel (hydroxypropylcellulose) (HPC) 104 % of control | dose: 400.0 mg/kg/injection, schedule: Q01DX009 (ip), vehicle: Klucel (hydroxypropylcellulose) (HPC) 117 % of control | dose: 400.0 mg/kg/injection, schedule: Q04DX003 (ip), vehicle: Klucel (hydroxypropylcellulose) (HPC) 117 % of control

N#CC(OC(OC(C#N)c1ccccc1)c1ccccc1)c1ccccc1 (centres undefined)
inactive: [4] 93 % of control | [5] 93 % of control | [6] 90 % of control

OCC(O)C1OCOC2COCOC21 (centres undefined)
inactive: dose: 222.0 mg/kg/injection, schedule: Q01DX Z (ip), vehicle: saline 98 % of control | dose: 333.0 mg/kg/injection, schedule: Q01DX Z (ip), vehicle: saline 117 % of control | dose: 500.0 mg/kg/injection, schedule: Q01DX Z (ip), vehicle: saline 105 % of control

CC1(C)C(N2CCOCC2)CS1(=O)=O (centres undefined)
inactive: [4] 101 % of control | [5] 103 % of control | [7] 94 % of control | [6] 104 % of control | dose: 200.0 mg/kg/injection, schedule: Q04DX003 (ip), vehicle: saline with Tween-80 88 % of control

O=C(O)c1ccc(NO)cc1
inactive: dose: 24.0 mg/kg/injection, schedule: Q01DX Z (ip), vehicle: methylcellulose (MC) 103 % of control | dose: 36.0 mg/kg/injection, schedule: Q01DX Z (ip), vehicle: methylcellulose (MC) 100 % of control | dose: 55.0 mg/kg/injection, schedule: Q01DX Z (ip), vehicle: methylcellulose (MC) 102 % of control | dose: 83.0 mg/kg/injection, schedule: Q01DX Z (ip), vehicle: methylcellulose (MC) 93 % of control

CC(C)(Cl)C(N)=O
inactive: [8] 101 % of control | [9] 103 % of control | dose: 400.0 mg/kg/injection, schedule: Q01DX001 (ip), vehicle: saline 97 % of control

NNCC(F)(F)F
inactive: [8] 101 % of control

O=[N+]([O-])c1c[c]([Hg][Cl])c(O)[c]([Hg][Cl])c1
inactive: dose: 3.13 mg/kg/injection, schedule: Q01DX009 (ip), vehicle: saline with Tween-80 88 % of control | dose: 3.13 mg/kg/injection, schedule: Q04DX002 (ip), vehicle: saline with Tween-80 107 % of control | dose: 3.13 mg/kg/injection, schedule: Q04DX003 (ip), vehicle: saline with Tween-80 88 % of control | dose: 6.25 mg/kg/injection, schedule: Q01DX009 (ip), vehicle: saline with Tween-80 86 % of control | dose: 6.25 mg/kg/injection, schedule: Q04DX002 (ip), vehicle: saline with Tween-80 96 % of control | dose: 6.25 mg/kg/injection, schedule: Q04DX003 (ip), vehicle: saline with Tween-80 97 % of control | dose: 12.5 mg/kg/injection, schedule: Q01DX009 (ip), vehicle: saline with Tween-80 91 % of control | dose: 12.5 mg/kg/injection, schedule: Q04DX002 (ip), vehicle: saline with Tween-80 93 % of control | dose: 12.5 mg/kg/injection, schedule: Q04DX003 (ip), vehicle: saline with Tween-80 87 % of control

CCCCCCCCCCCCCc1nc(N)nc(N2CCOCC2)n1
inactive: dose: 100.0 mg/kg/injection, schedule: Q04DX002 (ip), vehicle: Klucel (hydroxypropylcellulose) (HPC) 92 % of control | dose: 200.0 mg/kg/injection, schedule: Q04DX002 (ip), vehicle: Klucel (hydroxypropylcellulose) (HPC) 95 % of control | dose: 400.0 mg/kg/injection, schedule: Q04DX002 (ip), vehicle: Klucel (hydroxypropylcellulose) (HPC) 92 % of control

O=C(CCl)NC1=C(N2CC2)C(=O)c2ccccc2C1=O
inactive: dose: 50.0 mg/kg/injection, schedule: Q04DX003 (ip), vehicle: Klucel (hydroxypropylcellulose) (HPC) 93 % of control | [3] 91 % of control

Cc1cc(Cl)c(Cl)cc1NC(=O)C(Br)C(Br)c1ccccc1 (centres undefined)
inactive: dose: 100.0 mg/kg/injection, schedule: Q01DX009 (ip), vehicle: other 92 % of control | dose: 200.0 mg/kg/injection, schedule: Q01DX009 (ip), vehicle: other 92 % of control | dose: 400.0 mg/kg/injection, schedule: Q01DX009 (ip), vehicle: other 92 % of control

CC(=O)[O][Pb]([O]C(C)=O)([O]C(C)=O)[c]1ccccc1
inactive: dose: 6.25 mg/kg/injection, schedule: Q01DX009 (ip), vehicle: gum acacia 102 % of control | dose: 12.5 mg/kg/injection, schedule: Q01DX009 (ip), vehicle: gum acacia 98 % of control | dose: 25.0 mg/kg/injection, schedule: Q01DX009 (ip), vehicle: gum acacia 95 % of control | dose: 50.0 mg/kg/injection, schedule: Q01DX009 (ip), vehicle: gum acacia 103 % of control | [8] 97 % of control | dose: 100.0 mg/kg/injection, schedule: Q04DX002 (ip), vehicle: gum acacia 107 % of control | [9] 103 % of control | dose: 200.0 mg/kg/injection, schedule: Q04DX002 (ip), vehicle: gum acacia 103 % of control

CCCCCc1ccc(C(=O)O)cc1
inactive: dose: 25.0 mg/kg/injection, schedule: Q01DX009 (ip), vehicle: saline with Tween-80 103 % of control | dose: 25.0 mg/kg/injection, schedule: Q04DX003 (ip), vehicle: saline with Tween-80 106 % of control | [4] 98 % of control | dose: 50.0 mg/kg/injection, schedule: Q04DX003 (ip), vehicle: saline with Tween-80 101 % of control | [5] 97 % of control | [7] 98 % of control and 102 % of control
